Consider seven compounds from patent US11980598B2, “N-(2-(substituted-naphth-1-yl)ethyl) substituted amide compound, preparation and uses thereof” (BEIJING GREATWAY PHARMACEUTICAL TECHNOLOGY CO., LTD., priority 2017, dated 2024).

Data set [1] concerns the target human MT1 receptor membrane protein (Homo sapiens (Human), UniProt P48039). Nature of the data set: MT1 receptor binding test ([3H]-Melotonin competition). To be noted: for MT1 binding ratio (I %): prescreening, 10^−5 M. The method, then:
(§1) The receptors included a MT1/MT2 receptor and a 5-HT2C receptor. The test was divided into two parts: prescreening and rescreening. The results of prescreening were expressed as the percentage of binding, and the results of rescreening were expressed as the IC50 value (in M, i.e., mol/L).
(§2) (3) Tris-HCl buffer formulation: 50 mM Tris-HCl Buffer, 1 mM EDTA, 5 mM MgCl2, 0.1% NaN3, and then a certain proportion of PMSF was added to make pH 7.4.
(§3) (4) The example compound to be tested was dissolved in DMSO and formulated as a stock solution of 10^−2 M, and then diluted with distilled water to a concentration gradient of […]. The prescreening of the MT receptor binding test was performed at the concentration of 10^−5 M; the prescreening of the 5-HT2C receptor binding test was performed at the concentrations of 10^−5 and 10^−7 M.
(§4) The statistical analysis was performed using GraphPad Prism 5.0 software. The formula for receptor binding test was: inhibition (%)=[(total CPM of binding−CPM of tube with drug)/(total CPM of binding−non-specific CPM)]×100%, wherein CPM was count of a radioactive intensity.
(§5) 10 μL of receptor membrane protein MT1 or MT2 was added to all the tubes. In non-specific binding tubes, 50 μL of a corresponding unlabeled ligand Ago at a concentration of 10^4 M was added to a final concentration of 10 μM, and pre-reacted for 30 minutes. In test tubes, 30 μL of test drug (MT1: a concentration of 10^4-10^−10 M, MT2: a concentration of […]) was added, respectively; all tubes were added with 40 μL [^3H]-Melotonin, respectively. […] The filter paper was taken out and dried by baking, and then placed in a scintillation bottle. 1 mL of the scintillation liquid was added, and the radioactive intensity was measured by a liquid scintillation counter.

Data set [2] has as its target human MT2 receptor membrane protein (Homo sapiens (Human), UniProt P49286). Nature of the data set: MT2 receptor binding test ([3H]-Melotonin competition). To be noted: for MT2 binding ratio (I %): prescreening, 10^−5 M. The method, then: as §1, §2, §3, §4, §5
A short description of data set [3]: In vitro metabolism study, human liver microsomal incubation system. The format is in vitro ADME. The method, then:
TSQ Quantum liquid chromatography-mass spectrometer (LC/MS/MS) from Finnigan Inc, USA, chromatography column: TSKgel Amide-80 column (2.0 mm I.D.×100 mm, 5 μm); mobile phase: acetonitrile-water-formic acid (50:50:0.1); flow rate: 0.2 mL/min; injection volume: 5 μL; column temperature: room temperature. Ionization source is electrospray ionization (ESI) with 4.8 KV of spray voltage; capillary temperature (TEM): 300° C.; sheath gas: N2, flow rate: 10 psi; auxiliary gas: N2, flow rate: 1 psi; collision gas (CID): Ar at a pressure of 1.5 mTorr. The mass spectrometry scanning method was selective reaction monitoring (SRM) and detected by positive ion method. The internal standard was a […] solution of aconitine in acetonitrile, the minimum limit of quantification was 5 ng/mL, and the correlation coefficient was >0.99.
Approximately 10 mg of each sample to be tested was accurately weighed, dissolved in 0.1 mL of DMSO, and serially diluted with purified water to a 10 μM, 1 μM standard stock solution. An ice bath was operated and the incubation system for detection was formulated according to Table 4. NADPH was added to the incubation system to start the reaction, and then 50 μL was immediately added to 150 μL acetonitrile as a zero-time sample and a 1 μM standard curve sample. Another 1 μM standard stock solution was added to the incubation system, and then 50 μL was immediately added to 150 μL acetonitrile as a 0.1 μM standard curve sample. […] Each sample was shaken, and centrifuged at 18000 g for 10 min. The supernatant was taken for LC/MS/MS injection and determination.
For orientation: Liver microsomes are vesicles of endoplasmic reticulum, rich in cytochrome P450 enzymes.

Data set [4] concerns Kunming mice. Put plainly: Tail suspension test (TST) in mice. The class given is in vivo, mouse. The conditions noted are these: 10 mg/kg intraperitoneal, 3 days, last 4 of 6 min. The method, then: (§6) Animals: Kunming mice, male, body weight 18-22 g, SPF grade; SD rats, male, body weight 150-180 g, SPF grade. The test was carried out after acclimatization, and the animal was fasted for 12 hours before the test.
(§7) All drugs for the test were suspended and dispersed in a 1% aqueous solution of hydroxypropyl methylcellulose (HPMC), and shaken well before use. […] The doses for administration were all 10 mg/kg. For the concentration and volume for administration, see J Psychiatry Neurosci 2004; 29(2):126-133. The mice were intraperitoneally administered in a volume of 0.5 mL/20 g; and the rats were administered by i.g. in a volume of 2 mL/100 g.
Mice were randomly divided into groups according to weight balance. Intraperitoneal injection was administered for three consecutive days, once a day, and the tail suspension test were performed 30 minutes after the third day. The tail suspension box was 25×25×35 cm, and a small clip was connected with a rope at the center of the top plate. An adhesive tape was stuck to the tail of the mouse 2 cm away from the tail end, and the adhesive tape was clamped with the clip to make the mouse in an inverted position. The duration of immobility was recorded during the last 4 minutes of total 6 minutes observed.

For data set [5], the system named is Kunming mice. Put plainly: Forced mouse swimming test. The class given is in vivo. To be noted: 10 mg/kg intraperitoneal, 3 days, last 4 of 6 min. The method, then:
as §6, §7
Animal grouping and administration method were the same as those in the tail suspension test in mice. The mice were placed in a round glass vessel with a height of 20 cm, an inner diameter of 12 cm, a water depth of 10 cm and a water temperature of 25° C.

Another data set concerns SD rats. Put plainly: Forced rat swimming test. The format is in vivo. The conditions noted are these: 10 mg/kg i.g., 3 days, last 5 of 6 min. The method, then:
as §6, §7
Rats were randomly divided into groups according to weight balance. Rats were administered by i.g. for three consecutive days, once a day. One hour after administration on the third day, the forced swimming test was performed. The rats were placed in a round glass jar with a height of 40 cm, an inner diameter of 18 cm, a water depth of 23 cm, and a water temperature of 25° C. The rats were allowed to swim for 6 minutes, and the accumulated immobility time in the last 5 minutes was recorded.

[6] abbreviates: incubation time 0 min, 1 μM, 1 mg/mL microsome, 37° C.

Chain of human MT1 receptor membrane protein (P48039 whole entry): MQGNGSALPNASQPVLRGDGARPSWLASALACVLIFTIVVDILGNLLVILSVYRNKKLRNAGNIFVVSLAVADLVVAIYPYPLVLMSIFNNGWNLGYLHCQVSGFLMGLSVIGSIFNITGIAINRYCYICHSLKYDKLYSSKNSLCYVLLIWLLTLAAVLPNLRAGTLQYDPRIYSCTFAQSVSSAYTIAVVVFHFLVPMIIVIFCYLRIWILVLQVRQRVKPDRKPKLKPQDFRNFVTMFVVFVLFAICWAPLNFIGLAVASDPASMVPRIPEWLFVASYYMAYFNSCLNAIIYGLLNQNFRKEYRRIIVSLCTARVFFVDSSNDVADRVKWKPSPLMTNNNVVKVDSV
Chain of human MT2 receptor membrane protein (P49286 whole entry): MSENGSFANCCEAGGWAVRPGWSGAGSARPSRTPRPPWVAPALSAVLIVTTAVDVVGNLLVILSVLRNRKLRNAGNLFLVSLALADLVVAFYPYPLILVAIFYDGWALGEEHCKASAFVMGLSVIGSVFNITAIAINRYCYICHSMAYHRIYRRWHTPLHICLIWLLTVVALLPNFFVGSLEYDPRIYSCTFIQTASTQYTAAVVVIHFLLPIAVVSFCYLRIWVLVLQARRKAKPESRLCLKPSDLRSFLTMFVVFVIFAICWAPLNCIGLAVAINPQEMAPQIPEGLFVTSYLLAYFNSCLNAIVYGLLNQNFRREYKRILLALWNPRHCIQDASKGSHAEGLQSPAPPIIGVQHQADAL

Regarding `COc1cc2c(CCNC(C)=O)cccc2cc1Cl` [Example 2, N-(2-(6-chloro-7-methoxy-naphthalen-1-yl)ethyl)acetamide], the “MT1 binding ratio (I %)” value in data set [1] amounted to 84%. Moreover, the “MT2 binding ratio (I %)” value in data set [2] was 78%. In addition, the “Concentration measured at incubation time point” value (from here on “Concentration measured”) in data set [3] (setting [6]) came to 1.000 ± 0.036 µM; in data set [3] (incubation time 5 min), 0.420 ± 0.079 µM; in data set [3] (incubation time 15 min), 0.039 ± 0.003 µM. The values for the Immobility time in the data set on Kunming mice [4], in the data set on Kunming mice [5] and with SD rats were 69.4 ± 23.3 s, 81.3 ± 20.3 s and 61.3 ± 29.8 s, respectively.

Broadly, the IC50 is the concentration that inhibits the measured activity by half. As usually defined, the melting point is the temperature, or range, at which the solid turns liquid. Consider `COc1cc2c(CCNC(C)=O)cccc2cc1F` [Example 4, N-(2-(6-fluoro-7-methoxy-naphthalen-1-yl)ethyl)acetamide], for which the melting point lay in the range of 140 to 144 °C. Further, the “MT1 binding ratio (I %)” value in data set [1] was 77%. In data set [1] (rescreening), the IC50 turned out to be 0.23 ± 0.24 nM. The “MT2 binding ratio (I %)” value in data set [2] was 84%. This compound also displayed an IC50 in data set [2] (rescreening) of 0.67 ± 0.08 nM. Moreover, the “Concentration measured” value in data set [3] (setting [6]) was 1.001 ± 0.017 µM. Moreover, in data set [3] (incubation time 5 min), the “Concentration measured” value was 0.601 ± 0.009 µM. Further, in data set [3] (incubation time 15 min), the “Concentration measured” value amounted to 0.048 ± 0.003 µM. The “Concentration measured” value in data set [3] (incubation time 30 min) is 0.011 ± 0.002 µM. This compound also had an Immobility time in the data set with Kunming mice [4] of 76.6 ± 18.4 s. The same compound had an Immobility time in the data set on Kunming mice [5] of 75.6 ± 26.7 s. Moreover, the Immobility time in the data set on SD rats is reported as 71.4 ± 40.3 s.

`[2H]C([2H])([2H])Oc1cc2c(CCNC(C)=O)cccc2cc1F` [Example 3, N-(2-(6-fluoro-7-deuteromethoxy-naphthalen-1-yl)ethyl)acetamide] showed a melting point of 141 to 144 °C. The “MT1 binding ratio (I %)” value in data set [1] is listed as 66%. In data set [2], the “MT2 binding ratio (I %)” value turned out to be 57%. The “Concentration measured” value in data set [3] (setting [6]) was determined as 1.000 ± 0.041 µM. In data set [3] (incubation time 5 min), the “Concentration measured” value turned out to be 0.395 ± 0.047 µM. The “Concentration measured” value in data set [3] (incubation time 15 min) amounted to 0.029 ± 0.002 µM. The same compound displayed an Immobility time in the data set with Kunming mice [4] of 77.7 ± 28.6 s. The same compound returned an Immobility time in the data set on Kunming mice [5] of 83.3 ± 30.7 s. This compound also returned an Immobility time with SD rats of 76.1 ± 30.2 s.

As for `[2H]C([2H])([2H])Oc1ccc2cccc(CCNC(C)=O)c2c1` [d3-Ago, d3-Agomelatine, reference compound], the “Concentration measured” value came out at 0.999 ± 0.103 µM in data set [3] (setting [6]), 0.235 ± 0.022 µM in data set [3] (incubation time 5 min) and 0.004 ± 0.003 µM in data set [3] (incubation time 15 min).

Take `[2H]C([2H])([2H])Oc1cc2c(CCNC(=O)CC)cccc2cc1Cl` [Example 5, N-(2-(6-chloro-7-deuteromethoxy-naphthalen-1-yl)ethyl)propanamide]: the “MT1 binding ratio (I %)” value in data set [1] is 81%. For the same compound, the “MT2 binding ratio (I %)” value in data set [2] is reported as 44%. Further, the “Concentration measured” value in data set [3] (setting [6]) came to 1.000 ± 0.032 µM; in data set [3] (incubation time 5 min), 0.675 ± 0.044 µM; in data set [3] (incubation time 15 min), 0.116 ± 0.010 µM. Further, the figures for the Immobility time with Kunming mice [4], with Kunming mice [5] and in the data set with SD rats were 68.8 ± 17.3 s, 96.4 ± 14.4 s and 66.2 ± 35.1 s, respectively.

As for `CCC(=O)NCCc1cccc2cc(Cl)c(OC)cc12` [Example 6, N-(2-(6-chloro-7-methoxy-naphthalen-1-yl)ethyl)propanamide], the “MT1 binding ratio (I %)” value in data set [1] was 77%. The “MT2 binding ratio (I %)” value in data set [2] was 36%. Besides, the entries for the “Concentration measured” value in data set [3] (setting [6]), in data set [3] (incubation time 5 min) and in data set [3] (incubation time 15 min) were 1.000 ± 0.042 µM, 0.471 ± 0.051 µM and 0.056 ± 0.005 µM, respectively.

As for `CCC(=O)NCCc1cccc2cc(F)c(OC)cc12` [Example 7, N-(2-(6-fluoro-7-methoxy-naphthalen-1-yl)ethyl)propanamide], the “MT1 binding ratio (I %)” value in data set [1] is 73%. Besides, in data set [2], the “MT2 binding ratio (I %)” value is on record as 69%. Besides, the entries for the “Concentration measured” value in data set [3] (setting [6]), in data set [3] (incubation time 5 min) and in data set [3] (incubation time 15 min) were 1.000 ± 0.035 µM, 0.505 ± 0.033 µM and 0.065 ± 0.007 µM, respectively.
